31 compounds from patent US6716605B2, “Indole derivatives having an antiviral activity” (Shionogi & Co., Ltd., priority 1998, dated 2004) can be followed below.

One data set concerns the target HIV-1 integrase (Human immunodeficiency virus type 1 group M subtype B, UniProt P04585). The data set is described as follows: HIV-1 integrase inhibition assay (microtiter plate, substrate DNA/target DNA, OD 405 nm). Type of data set: biochemical. As to the method:
The DNA solutions were annealed with each complement by slowly cooling after heating.
After coating each well of microtiter plates (obtained from NUNC) with 50 μl of the above solution at 4° C. overnight, each well was washed twice with PBS (composition: […], 0.27 mM KCl, 0.43 mM Na2HPO4, 0.14 mM KH2PO4) and blocked with 300 μl of 1% skim milk in PBS for 30 min. Additionally, each well was washed twice with PBS and added 50 μl of substrate DNA solution (2 pmol/μl). The microtiter plates were kept at room temperature for 30 min. Then, each well was washed twice with PBS and once with H2O.
The microtiter plates were incubated at 30° C. for 1 hour. […] Then, each well was washed twice with 0.05% Tween20 in PBS and once with PBS. […] The optical density (OD) at 405 nm of each well was measured and the percent inhibition was determined by the following expression.
Turning to `O=C(O)C(O)=CC(=O)c1cn(S(=O)(=O)c2ccccc2)c2ccc(Cl)cc12` [Example 23(2), 4-(1-Benzenesulfonyl-5-chloroindol-3-yl)-2-hydroxy-4-oxo-2butenoic acid], the IC50 was 0.32 µM. `O=C(C=C(O)c1nc[nH]n1)c1c[nH]c2ccc(Cl)cc12` [Example 71] gave an IC50 of 5.16 µM. In turn, `O=C(C=C(O)c1nn[nH]n1)c1cn(S(=O)(=O)c2cccs2)c2ccc(Cl)cc12` [Example 80] showed an IC50 of 7.57 µM. With `O=C(C=C(O)c1nn[nH]n1)c1cn(Cc2ccccc2)c2ccc(Cl)cc12` [Example 81], the IC50 is 9.48 µM.

System in another data set: not given
Assay: not given
In the case of `O=C(O)c1cccc(C(O)=CC(=O)c2cn(S(=O)(=O)c3ccccc3)c3ccc(Cl)cc23)c1`, the melting point is 245 to 255 °C (dec.). For the compound `O=C(O)c1cccc(C(O)=CC(=O)c2c[nH]c3ccc(Cl)cc23)c1`, the melting point is > 270 °C (dec.). On the same count and under the same terms, as for `O=C(/C=C(\O)c1nn[nH]n1)c1c([S+]([O-])c2cc(Cl)cc(Cl)c2)[nH]c2ccc(Cl)cc12` (stereo not shown), the figure is 200 to 204 °C (dec.); as for `COC(=O)/C(O)=C/C(=O)c1c(Cc2ccc(F)cc2)[nH]c2ccc(Cl)cc12`, 235 to 238 °C.

As for `O=C(/C=C(\O)c1nn[nH]n1)c1c(CCCc2ccc(F)cc2)[nH]c2ccc(Cl)cc12`, the melting point is 181 to 182 °C (dec.). As for `COc1ccccc1Cc1[nH]c2ccc(Cl)cc2c1C(=O)/C=C(\O)c1nn[nH]n1`, the melting point is 245 °C (dec.). For `O=C(/C=C(\O)c1ncc[nH]1)c1c[nH]c2ccc(Cl)cc12`, the melting point was in the range of 272 to 276 °C. Compound `O=C(/C=C(\O)c1nccs1)c1c[nH]c2ccc(Cl)cc12` displayed a melting point of 226 to 227 °C.

For the compound `COc1ccccc1Cn1cc(C(=O)/C=C(\O)c2nn[nH]n2)c2cc(Cl)ccc21`, the melting point is 256 °C (dec.).

Take `O=C(/C=C(\O)c1nn[nH]n1)c1cn(Cc2ccccc2)c2c(Cl)cccc12`: the melting point is 252 °C (dec.). As to `O=C(/C=C(\O)c1nc[nH]n1)c1cn(S(=O)(=O)c2ccccc2)c2ccc(Br)cc12`, the melting point is 290 to 295 °C (dec.).

Regarding `O=C(/C=C(\O)c1nc[nH]n1)c1cn(S(=O)(=O)c2ccccc2)c2cc(Cl)ccc12`, the melting point lay within 265 to 270 °C.

For `O=C(/C=C(\O)c1nc[nH]n1)c1cn(S(=O)(=O)c2ccc(F)cc2)c2ccc(Br)cc12`, the melting point was 266 to 270 °C. The same measure, in the same setting: as for `O=C(/C=C(\O)c1nc[nH]n1)c1cn(S(=O)(=O)c2ccc(F)cc2)c2cc(Cl)ccc12`, the figure is 293 to 298 °C (dec.); as for `O=C(/C=C(\O)c1nc[nH]n1)c1cn(S(=O)(=O)c2cc(Cl)ccc2Cl)c2ccc(Cl)cc12`, 301 to 302 °C; as for `O=C(/C=C(\O)c1nc[nH]n1)c1cn(Cc2ccccc2)c2ccc(Cl)cc12`, 264 to 265 °C. With `O=C(/C=C(\O)c1nc[nH]n1)c1cn(Cc2ccc(F)cc2)c2ccc(Br)cc12`, the melting point was 265 to 268 °C. The compound `O=C(/C=C(\O)c1nc[nH]n1)c1cn(Cc2ccc(F)cc2)c2cc(Cl)ccc12` returned a melting point of 260 to 263 °C. Still for that read-out and setting: for `O=C(/C=C(\O)c1nccs1)c1cn(S(=O)(=O)c2ccccc2)c2ccc(Cl)cc12` the value was 191 to 194 °C. Consider `O=C(O)/C(O)=C/C(=O)c1cn(Cc2ccc(C(=O)O)cc2)c2ccc(Cl)cc12`, for which the melting point was 245 °C (dec.). With `CCOC(=O)C(=CC(=O)c1cn(Cc2ccccc2)c2ccc(Cl)cc12)NC`, the melting point fell in the range of 131 to 132 °C. Still for that read-out and setting: for `CNC(=CC(=O)c1cn(Cc2ccccc2)c2ccc(Cl)cc12)C(=O)O` the value was 205 to 210 °C (dec.); for `CCOCCNC(=CC(=O)c1cn(Cc2ccccc2)c2ccc(Cl)cc12)C(=O)OCC`, 73 to 74 °C; for `CCOCCNC(=CC(=O)c1cn(Cc2ccccc2)c2ccc(Cl)cc12)C(=O)O`, 184 to 186 °C (dec.). `CCOC(=O)C(N)=CC(=O)c1c[nH]c2ccccc12` registered a melting point of 200 to 205 °C. Still for that read-out and setting: as for `O=C(OC(c1ccccc1)c1ccccc1)C(O)=CC(=O)c1cn(C(=O)c2ccc(F)cc2)c2ccc(Cl)cc12`, the figure is 198 to 200 °C; as for `O=C(O)C(O)=CC(=O)c1cn(C(=O)c2ccc(F)cc2)c2ccc(Cl)cc12`, 213 to 218 °C; as for `O=C(C=C(O)c1nc[nH]n1)c1c[nH]c2ccc(Cl)cc12` [Example 71], 277 to 279 °C. Still for that read-out and setting: as for `O=C(C=C(O)c1nn[nH]n1)c1cn(S(=O)(=O)c2cccs2)c2ccc(Cl)cc12` [Example 80], the figure is 243 °C; as for `O=C(C=C(O)c1nn[nH]n1)c1cn(Cc2ccccc2)c2ccc(Cl)cc12` [Example 81], above 240 °C.

As a reminder, the IC50 is the midpoint of a concentration-inhibition curve. Lower therefore signals greater potency. As usually defined, the melting point is the temperature, or range, at which the solid turns liquid.
